The subject of one data set is MMP-10. Put plainly: QRT-PCR gene expression in HaCaT cells with or without UVA. The class given is cell-based, human. How it is done: (§1) HaCaT cells were obtained from Prof. Fusenig, German Cancer Research Centre, Heidelberg. […] The accuracy of cell counting was approximately 99%.
(§2) On day 3 of the experiment, cells were washed six times with Ca/Mg-free PBS containing 2% BSA, and then irradiated with light with a Hönle sun lamp Sol 500 (Dr. Hönle, Plannegg, Germany) at a dose of 270 kJ/m^2 in Ca/Mg-free PBS (2 hour exposure time at […]). The experimental schedule was chosen because the cells had optimal UVA sensitivity after 48 hours in culture. […] Confluent cultures were much less sensitive to irradiation.
(§3) After irradiation, the cells were supplied with fresh β-carotene-containing serum-free medium and kept in the incubator at 37° C., 5% CO2 until harvest of the samples. In experiments in which the half-life of ^1O2 was prolonged by D2O to enhance its effect, PBS was prepared in D2O, instead of in H2O, as it was done for the standard conditions described above. Cells were washed twice in D2O-PBS prior to irradiation in D2O-PBS. After irradiation, cells were maintained with fresh β-carotene-containing serum-free medium. Sham controls were treated in an identical manner, by placing them under the solar simulator but shielded from light.
(§4) Total RNA was isolated by using Trizol™ (Invitrogen, Basel, Switzerland) according to the instructions of the manufacturer. Random-primed cDNA was synthesized using the Superscript pre-amplification system for first strand cDNA synthesis (Invitrogen).
(§5) cDNA corresponding to 10 ng total RNA was used as template to quantify the relative RNA expression of the genes of interest by TaqMan® real time PCR.
(§6) The PCR analyses were carried out in triplicate and in a multiplex setup, using 18S rRNA as a calibrator gene. The rRNA primers were used at a final concentration of 50 nM, the probe at 100 nM. For quantification of the genes of interest, the primer concentrations were optimized for sensitivity of template detection. […] PCR reactions were carried out for 40 cycles of 95° C. for 15 seconds and 60° C. for 1 minute in an ABI7700 (Applied Biosystems, Rotkreuz, Switzerland). Regulation of gene expression was calculated as described in user bulletin #2 provided by the manufacturer. A threshold cycle (“CT”) is the first PCR cycle in which an amplification signal is detected. Expression levels are given as δCT values. The δCT value describes the level of gene expression as the average PCR cycle, in which the gene of interest was detected first (CT value), subtracted by the CT value of the calibrator gene 18S rRNA (CTgene of interest−CTcalibrating gene), 18S rRNA served as a measure for the amount of template in the reaction. Routinely, 18S rRNA was detected between PCR cycle 12 and 13 (SE=standard error) A low δCT corresponds to a high mRNA level.

The subject of a further data set is MMP-1. The description is as above. The class given is cell-based, human. How it is done:
as §1, §2, §3, §4, §5, §6

A further data set has as its system MMP-2. Described as above. The class given is cell-based, human. How it is done: as §1, §2, §3, §4, §5, §6
A further data set relates to MMP-3. The data set is described as above. The class given is cell-based, human. How it is done: as §1, §2, §3, §4, §5, §6
The next data set concerns MMP-9. Described as above. The class given is cell-based, human. How it is done: as §1, §2, §3, §4, §5, §6
For the next data set, the system named is TIMP-1. Described as above. The class given is cell-based, human. The protocol: as §1
Vitamin E (RRR-α-tocopherol; DSM Nutritional Products, Kaiseraugst, Switzerland) stock solutions and vitamin E-containing media were prepared as described for β-carotene-containing solutions, except that vitamin E was dissolved in ethanol. In experiments addressing the vitamin E effect, vitamin E was used in a final concentration of 50 μM. Again, the solvent concentration was kept constant at 0.03% ethanol for all conditions.
On day 3 of the experiment, cells were washed six times with Ca/Mg-free PBS containing 2% BSA, and then irradiated with light with a Hönle sun lamp Sol 500 (Dr. Hönle, Plannegg, Germany) at a dose of 270 kJ/m^2 in Ca/Mg-free PBS (2 hour exposure time at […]). The experimental schedule was chosen because the cells had optimal UVA sensitivity after 48 hours in culture. […] Confluent cultures were much less sensitive to irradiation. […]
as §5
The PCR analyses were carried out in triplicate and in a multiplex setup, using 18S rRNA as a calibrator gene. […] For quantification of the genes of interest, the primer concentrations were optimized for sensitivity of template detection. […] Regulation of gene expression was calculated as described in user bulletin #2 provided by the manufacturer. A threshold cycle (“CT”) is the first PCR cycle in which an amplification signal is detected. […] The δCT value describes the level of gene expression as the average PCR cycle, in which the gene of interest was detected first (CT value), subtracted by the CT value of the calibrator gene 18S rRNA (CTgene of interest−CTcalibrating gene), 18S rRNA served as a measure for the amount of template in the reaction. Routinely, 18S rRNA was detected between PCR cycle 12 and 13 (SE=standard error) A low δCT corresponds to a high mRNA level.

Another data set deals with GADD153. Kind of data set: QRT-PCR confirmation of gene regulation in HaCaT cells. To be noted: 5 hours after UVA. The class given is cell-based, human. The protocol:
(§7) FIGS. 9A-9C show β-carotene-induced inhibition of integrinα6 transcription in irradiated and unirradiated HaCaT cells (FIG. 9A) and enhancement of UVA-induced GADD34 (FIG. 9B) and GADD153 transcription (FIG. 9C). Cells were supplemented with β-carotene for 2 days prior to UVA irradiation (270 kJ/m^2) either in normal PBS or D2O-PBS. Gene expression 5 hours after irradiation was determined by quantitative real time polymerase chain reaction. (“QRT-PCR”). Values are geometric mean±standard error of three experiments.
(§8) Key gene regulation was confirmed in three independent cell irradiation experiments using TaqMan® QRT-PCR as described. In these experiments, cells were pretreated with 0.5, 1.5, or 3 μM β-carotene, to analyze for dose-dependent β-carotene effects. In addition, cells were irradiated either in D2O-containing PBS or in H2O-containing PBS, to analyze for the ^1O2 inducibility of genes.

The test system of the next data set is GADD34. The description is as above. To be noted: 5 hours after UVA. The class given is cell-based, human. The protocol: as §7, §8
Data set [1] has as its system retinoic acid response elements (RAREs). Put plainly: RA-dependent reporter gene assay pGL3 (RARE)5 tk luc in HaCaT cells. The class given is cell-based, human. (A reporter such as luciferase makes a cellular process visible.)
Procedure: HaCaT cells were transiently transfected with the reporter construct pGL3 (RARE)5 tk luc, containing five DR5-type retinoic acid response elements (“RAREs”). Luciferase activity was determined after 40 hours treatment with β-carotene. Values are means±standard error from two experiments with four replicates each.
HaCaT cells were seeded at a density of 3×10^6 cells/well in 6 well plates (BD Biosciences, Basel, Switzerland) in FAD medium containing 2% NuSerum. The cells were transfected the next day using 1 μg reporter plasmid (pGL3 (RARE)5 tk luc) and 5 μl Lipofectin (1 μg/μL; Invitrogen, Basel, Switzerland) per well. The RARE is a DR5 element identical to the wild type element of the RARβ2 promoter. The spacing between the DR5 sites is 25 nucleotides. The transfections were performed for 7.5 hours in serum-free FAD medium according to the manufacturer's protocol. […] Transactivation of the reporter gene was determined after 40 hours of β-carotene treatment.
To generate the RA standard curve, 9-cis RA and all-trans RA were used together at concentrations ranging from 10^−10 to 10^−8 M each. […] Relative luciferase units (RLU) were quantified in a luminoskan reader (Thermo Labsystems, Vantaa, Finland), and corrected by protein concentrations as determined with the BCA assay (Pierce, Rockford, USA).
The subject of a further data set is caspase-3. Put plainly: Caspase-3 activity, CaspACE Assay System. The class given is cell-based, human. The protocol:
Cells were supplemented with β-carotene for 2 days and prior to UVA irradiation (270 kJ/m^2). Caspase-3 activity was determined at 5 hours after irradiation. Values are mean±standard error of an experiment with four replicates.
Caspase-3 activity 5 hours after UVA irradiation was quantified in five separate experiments using the CaspACE™ Assay System (Promega/Catalys, Switzerland).

Data set [2] is described as follows: β-Carotene concentration in culture medium during incubation. The class given is physicochemical. To be noted: 24 hours of incubation, irrespective of the presence of cells. The protocol: β-carotene-containing medium was prepared as follows. Fresh all-E-β-carotene (DSM Nutritional Products, Kaiseraugst, Switzerland) stock solution in THF (containing 0.025% BHT; Fluka Chemie A G, Switzerland) was diluted 1:2 with ethanol and added to cell culture medium to a final concentration of 1.5 μM β-carotene. The solvent concentration in the medium was 0.5% for all treatments. β-carotene-containing medium was prepared fresh for the daily medium changes.

The next data set has as its system sunburn cells. To be noted: supplementation, humans; cited from earlier work.
Setting [3] is: β-carotene 1.5 μM, with or without UVA.

Each structure is given as a SMILES string.

Take `CC1=C(/C=C/C(C)=C/C=C/C(C)=C/C=C/C=C(C)/C=C/C=C(C)/C=C/C2=C(C)CCCC2(C)C)C(C)(C)CCC1` [β-carotene, All-E-β-carotene]: the “basal MMP-10 expression” value in the data set on MMP-10 (unirradiated cells) is on record as “tended to reduce”. For the same compound, in the data set on MMP-10 (β-carotene 1.5 μM, UVA alone about 3 fold), the “UVA induction of MMP-10” value was “approx. 2.5 fold”. Besides, the “MMP-10 induction by UVA and D2O” value in the data set with MMP-10 (β-carotene 0.5, 1.5, 3 μM) was “opposed MMP-10 induction by UVA and D2O in a dose-dependent fashion”. In addition, the “basal MMP-1 RNA expression” value in the data set with MMP-1 (unirradiated cells) was “tended to reduce”. In the data set with MMP-1 (β-carotene 1.5 μM, 5 hours after UVA, UVA alone 1.3 fold), the “UVA-induced MMP-1 induction” value came to 0.9 fold. Besides, the “UVA/D2O-induced MMP-1 induction” value in the data set on MMP-1 (β-carotene 0.5, 1.5, 3 μM) was “significantly and dose-dependently reduced”. Moreover, the values for the MMP-2 expression entry with MMP-2 (UVA/D2O experiments) and with MMP-2 (setting [3]) were “no significant effect” and “did not influence their expression significantly”, respectively. The “MMP-3 induction by UVA” value in the data set on MMP-3 (presence or absence of D2O) is recorded as “prevented MMP-3 induction”. Moreover, the “UVA-induction of MMP-3” value in the data set on MMP-3 (β-carotene 1.5 μM, UVA alone approx. 49 fold) is 27 fold. In addition, the results for the MMP-9 expression entry with MMP-9 (UVA/D2O experiments) and with MMP-9 (setting [3]) were “no significant effect” and “did not influence their expression significantly”, respectively. Also, the “MMP-9 expression, tendency” value in the data set with MMP-9 (irradiated and unirradiated cells) is given as “tended to lower expression”. The TIMP-1 expression entry in the data set on TIMP-1 (UVA/D2O experiments) is given as “not significantly influenced”. Besides, the “TIMP-1 RNA level” value in the data set on TIMP-1 (β-carotene, with or without UVA) is given as “not significantly influenced”. The “UVA-induced GADD153 transcription” value with GADD153 was “enhancement”. Besides, the “UVA-induced GADD34 transcription” value in the data set with GADD34 was “enhancement”. Besides, the “activation of the luciferase reporter” value in [1] (1 or 3 μM β-carotene, 40 hours) was “comparable to what was achieved after treating the cells with a combination of all-trans RA and 9-cis RA at 10 nM each”. Also, in data set [1] (cells irradiated with UVA prior to measurement), the “RARE-dependent gene activation after UVA irradiation, relative to unirradiated” value was “about 70%”. Further, the caspase-3 activation entry in the data set with caspase-3 (β-carotene alone, unirradiated) was “Neither UVA nor β-carotene alone activated caspase-3”. Also, the caspase-3 activity result in the data set on caspase-3 (β-carotene with UVA 270 kJ/m^2, 5 hours after irradiation) is on record as “induce caspase-3 activity in a dose-dependent manner”. In addition, the “β-carotene concentration in medium remaining” value in [2] is “approximately 50%”. In the data set on sunburn cells, the “number of sunburn cells” value is “did not alter the number of sunburn cells”.

These data come from US20160304957A1, “TREATMENT AND MODULATION OF GENE EXPRESSION AND SKIN AGING” (DSM NUTRITIONAL PRODUCTS LTD., priority 2006, published 2016).
